Measurements reported in US20240252586A1, “ENGINEERED ANTIMICROBIAL PEPTIDES AND USAGE THEREOF” (priority 2021, published 2024).
Values joined by “and” are separate entries in the source; they are usually repeats but may differ in a detail not shown here. Equal values may be shown once. Read-outs that look alike come from different tables or passages of the source. Where no end group is shown, it is not given here.

Experiments:
S. epidermidis = assay: Broth microdilution MIC, PJI isolates (Example 1); type: cell-based, Staphylococcus epidermidis; conditions: RPMI
Protocol: (§1) Imipenem, levofloxacin, tigecycline, linezolid, vancomycin, oxacillin, ceftazidime, colistin, and amikacin were tested as comparators. Testing was conducted in accordance with guidelines from the Clinical and Laboratory Standards Institute (CLSI; M7 and M100). Test organisms comprised reference strains from the American Type Culture Collection, the Centers for Disease Control Antibiotic Reference Bank and clinical isolates from the Micromyx repository.

S. epidermidis MMX 5129 = system: S. epidermidis MMX 5129
Protocol: (§2) SEQ ID NO: 1 stocks were made at 5.12 mg/mL in water adjusted to pH of 5.0 with 1% glacial acetic acid.
(§3) The test organisms (Table 7) consisted of clinical isolates from the Micromyx (MMX) repository, a reference isolate from the American Type Culture Collection (ATCC, Manassas, VA) and the Centers for Disease Control (CDC, Atlanta GA). Upon initial receipt, the isolates were streaked under suitable conditions onto agar medium appropriate to each organism. The organisms were incubated for 18-24 hr at 35° C. in ambient atmosphere. Colonies harvested from these growth plates were resuspended in the appropriate medium containing a cryoprotectant. Aliquots of each suspension were then stored frozen at −80° C. Prior to testing, all organisms were cultured onto trypticase soy agar containing 5% sheep blood. The agar plates were incubated as described above.
(§4) The Test media used for MIC and FIC were testing were cation-adjusted Mueller-Hinton broth (CAMHB) and Roswell Park Memorial Institute (RPMI-1640), buffered with 3-(N-morpholino)propanesulfonic acid (MOPS). Each test media was supplemented with 0.002% Tween-80 (P-80) prior to testing.
(§5) MIC assay plates were prepared for broth microdilution in accordance with guidelines from the Clinical and Laboratory Standards Institute (CLSI); automated liquid handlers (Biomek 3000 and Biomek FX) and multi-channel pipettes were used to conduct serial dilutions and liquid transfers. MIC assay plates were prepared using a 96-well, deep-well microdilution plate that mimicked the layout of the daughter plates.
(§6) For the mother plate, wells across the standard 96-well microdilution plate were filled with 150 μL of sterile saline 0.002% P-80 in columns 2 through 12. […] The Biomek 300 was used to make eleven 2-fold serial dilutions horizontally across each row of the plate from columns 2 through 11. The Biomek FX was then used to transfer 5 μL of the SEQ ID NO: 1 and saline 0.002% P-80 to the daughter plates.
(§7) A standardized inoculum of each organism was prepared per CLSI methods. Suspensions were prepared to equal a 0.5 McFarland standard followed by a 1:10 dilution into test medium. The inocula were dispensed into sterile reservoirs divided by length and the Biomek 3000 was used to inoculate the plates. Daughter plates were placed on the Biomek 3000 work surface in reverse orientation so that inoculation took place from low to high drug concentration. The Biomek 3000 delivered 10 μL of the diluted suspension into each well. These inoculations yielded a final cell concentration in the daughter plates of approximately 5×10^5 CFU/mL in each well. Plates were incubated at 35° C. for 16-20 hr. The microplates were viewed from the bottom using a plate viewer and the MIC was recorded as the lowest concentration of drug that inhibited visible growth of the organism.

E. Coli CDC 0451 = system: E. Coli CDC 0451
Protocol: as §2, §3, §4, §5, §6, §7

E. Coli ATCC BAA-2469 = system: E. Coli ATCC BAA-2469
Protocol: as §2, §3, §4, §5, §6, §7

S. epidermidis MMX 8655 = system: S. epidermidis MMX 8655
Protocol: as §2, §3, §4, §5, §6, §7

E. Coli ATCC 25922 = system: E. Coli ATCC 25922
Protocol: as §2, §3, §4, §5, §6, §7

S. aureus ATCC 29213 = system: S. aureus ATCC 29213
Protocol: as §2, §3, §4, §5, §6, §7

P. aeruginosa ATCC 27853 = system: P. aeruginosa ATCC 27853
Protocol: as §2, §3, §4, §5, §6, §7

P. aeruginosa CDC 0509 = system: P. aeruginosa CDC 0509
Protocol: as §2, §3, §4, §5, §6, §7

S. aureus NRS 382 = system: S. aureus NRS 382
Protocol: as §2, §3, §4, §5, §6, §7

S. aureus NRS 384 = system: S. aureus NRS 384
Protocol: as §2, §3, §4, §5, §6, §7

P. aeruginosa CDC 0515 = system: P. aeruginosa CDC 0515
Protocol: as §2, §3, §4, §5, §6, §7

S. epidermidis MMX 3628 = system: S. epidermidis MMX 3628
Protocol: as §2, §3, §4, §5, §6, §7

P. aeruginosa = assay: Broth microdilution MIC, PJI isolates (Example 1); type: cell-based, Pseudomonas aeruginosa; conditions: RPMI; N = 20
Protocol: as §1

Question: RRWVRRVRRVWRRVVRVVRRWVRR [SEQ ID NO: 1] was tested. Which MIC50 (S. epidermidis; All S. epidermidis (N = 104)) did it give?
Answer: 0.12 µg/mL

Question: What about the MIC90 (S. epidermidis; All S. epidermidis (N = 104)) of the same sequence?
Answer: 0.12 µg/mL

Question: And the MIC50 (S. epidermidis; MRSE (N = 58))?
Answer: 0.12 µg/mL

Question: And the MIC90 (S. epidermidis; MRSE (N = 58))?
Answer: 0.12 µg/mL

Question: What about the MIC50 (S. epidermidis; MSSE (N = 46)) of the same sequence?
Answer: 0.12 µg/mL

Question: What about the MIC90 (S. epidermidis; MSSE (N = 46)) of the same sequence?
Answer: 0.12 µg/mL

Question: And the MIC (S. epidermidis MMX 5129; CAMHB)?
Answer: 1 µg/mL

Question: What about the MIC (S. epidermidis MMX 5129; RPMI) of the same sequence?
Answer: 0.12 µg/mL

Question: What about the MIC (E. Coli CDC 0451; CAMHB) of the same sequence?
Answer: 1 µg/mL and 2 µg/mL

Question: And the MIC (E. Coli CDC 0451; RPMI)?
Answer: 0.5 µg/mL

Question: And the MIC (E. Coli ATCC BAA-2469; CAMHB)?
Answer: 4 µg/mL

Question: What about the MIC (E. Coli ATCC BAA-2469; RPMI) of the same sequence?
Answer: 0.5 µg/mL

Question: What about the MIC (S. epidermidis MMX 8655; CAMHB) of the same sequence?
Answer: 0.5 µg/mL

Question: And the MIC (S. epidermidis MMX 8655; RPMI)?
Answer: 0.12 µg/mL

Question: And the MIC (S. epidermidis MMX 8655; stated in FIG. 3 legends (time-kill))?
Answer: 1 µg/mL

Question: And the MIC (E. Coli ATCC 25922; CAMHB)?
Answer: 4 µg/mL

Question: What about the MIC (E. Coli ATCC 25922; RPMI) of the same sequence?
Answer: 0.5 µg/mL

Question: What about the MIC (S. aureus ATCC 29213; CAMHB) of the same sequence?
Answer: 4 µg/mL

Question: And the MIC (S. aureus ATCC 29213; RPMI)?
Answer: 0.5 µg/mL

Question: What about the MIC (P. aeruginosa ATCC 27853; CAMHB) of the same sequence?
Answer: 8 µg/mL

Question: And the MIC (P. aeruginosa ATCC 27853; RPMI)?
Answer: 2 µg/mL

Question: And the MIC (P. aeruginosa CDC 0509; CAMHB)?
Answer: 8 µg/mL

Question: What about the MIC (P. aeruginosa CDC 0509; RPMI) of the same sequence?
Answer: 4 µg/mL

Question: What about the MIC (P. aeruginosa CDC 0509; stated in FIG. 5 legends (time-kill), printed P. Aeruginosa CDC 0451) of the same sequence?
Answer: 16 µg/mL

Question: And the MIC (S. aureus NRS 382; RPMI)?
Answer: 0.5 µg/mL

Question: And the MIC (S. aureus NRS 382; stated in FIG. 2 legends (time-kill), printed S. aureus NRS 382)?
Answer: 8 µg/mL

Question: What about the MIC (S. aureus NRS 384; CAMHB) of the same sequence?
Answer: 4 µg/mL

Question: And the MIC (S. aureus NRS 384; RPMI)?
Answer: 0.5 µg/mL

Question: What about the MIC (P. aeruginosa CDC 0515; CAMHB) of the same sequence?
Answer: 8 µg/mL

Question: And the MIC (P. aeruginosa CDC 0515; RPMI)?
Answer: 1 µg/mL

Question: And the MIC (S. epidermidis MMX 3628; CAMHB)?
Answer: 0.25 µg/mL

Question: What about the MIC (S. epidermidis MMX 3628; RPMI) of the same sequence?
Answer: 0.12 µg/mL

Question: What about the MIC50 (P. aeruginosa) of the same sequence?
Answer: 1 µg/mL

Question: And the MIC90 (P. aeruginosa)?
Answer: 1 µg/mL
